Molecular target: angiotensin II AT1 receptor
Experiment: Assay A: Angiotensin II binding activity (125I-AII displacement, rat uterine membrane preparation)
Procedure: Assay A: Antiotensin II Binding Activity
Compounds of the invention were tested for ability to bind to the smooth muscle angiotensin II receptor using a rat uterine membrane preparation. […] Rat uterine membranes were prepared from fresh tissue. All procedures were carried out at 4° C. Uteri were stripped of fat and homogenized in phosphate-buffered saline at pH 7.4 containing 5 mM EDTA. The homogenate was centrifuged at 1500×g for 20 min., and the supernatant was recentrifuged at 100,000×g for 60 min. The pellet was resuspended in buffer consisting of 2 mM EDTA and 50 mM Tris-HCl (pH 7.5) to a final protein concentration of 4 mg/ml. […] The reaction was initiated by the addition of membrane protein and the mixture was incubated at 25° C. for 60 min. The incubation was terminated with ice-cold 50 mM Tris-HCl (pH 7.5) and the mixture was filtered to separate membrane-bound labelled peptide from the free ligand. The incubation tube and filter were washed with ice-cold buffer. Filters were assayed for radioactivity in a Micromedic gamma counter.
Nonspecific binding was defined as binding in the presence of 10 μM of unlabelled AII. Specific binding was calculated as total binding minus nonspecific binding. […] Binding data were analyzed by a nonlinear least-squares curve fitting program.

| Compound | IC50 [µM] |
| --- | --- |
| CCCCc1nc(C(F)(F)C(F)(F)F)nn1Cc1ccc(-c2ccccc2-c2nnn[nH]2)cc1 [Compound 69] | 0.015 |
| CCCCc1cn(C)c(=O)n1Cc1ccc(-c2ccccc2-c2nnn[nH]2)nc1 [Compound 194] | 0.047 |
| CCCCc1cn(CCCC)c(=O)n1Cc1ccc(-c2ncccc2-c2nnn[nH]2)cc1 [Compound 224] | 0.091 |
| CCCCc1cn(-c2c(C)cccc2C)c(=O)n1Cc1ccc(-c2ccccc2-c2nnn[nH]2)nc1 [Compound 222] | 0.005 |
| CCCCc1nc(C23CC4CC(CC(C4)C2)C3)nn1Cc1ccc(-c2ccccc2-c2nnn[nH]2)cc1 [Compound 56] | 0.005 |
| CCCn1cc(CC(C)C)n(Cc2ccc(-c3ccccc3-c3nnn[nH]3)nc2)c1=O [Compound 187] | 0.77 |
| CCn1nc(C(C)(F)F)nc1Cc1ccc(-c2ccccc2-c2nnn[nH]2)nc1 [Compound 164] | 1.7 |
| CCCCc1nc(CCCC)n(Cc2ccc(-c3cccnc3-c3nnn[nH]3)cc2)n1 [Compound 242] | 0.11 |
| CCCCc1nn(/C(Cc2ccccc2)=C(/OCc2ccccc2)c2ccccc2)c(=O)n1Cc1ccc(-c2ccccc2-c2nn[nH]n2)cc1 [Compound 93] | 0.48 |
| CCCCc1cn(CCCC)c(=O)n1Cc1ccc(-c2ccncc2-c2nnn[nH]2)cc1 [Compound 226] | 0.093 |
| CCCCc1cn(-c2c(C)cc(C(C)(C)C)cc2C)c(=O)n1Cc1ccc(-c2ccccc2-c2nnn[nH]2)nc1 [Compound 233] | 0.084 |
| CCCCn1nc(C(C)(OC)OC)nc1Cc1ccc(-c2ccccc2-c2nnn[nH]2)nc1 [Compound 182] | 0.059 |
| CCCCn1cc(C2CCCC2)n(Cc2ccc(-c3ccccc3-c3nnn[nH]3)nc2)c1=O [Compound 192] | 0.14 |
| CCCCn1nc(C(=O)NC(C)(C)C)nc1Cc1ccc(-c2ccccc2-c2nnn[nH]2)nc1 [Compound 173] | 0.09 |
| CCCCc1cn(CCCC)c(=O)n1Cc1ccc(-c2cnccc2-c2nnn[nH]2)cc1 [Compound 225] | 0.16 |
| CCCCn1nc(C(C)=O)nc1Cc1ccc(-c2ccccc2-c2nnn[nH]2)nc1 [Compound 183] | 0.39 |
| CCCCn1cc(CC(C)C)n(Cc2ccc(-c3ccccc3-c3nnn[nH]3)nc2)c1=O [Compound 188] | 0.14 |
| CCCCc1nc(-c2ccccc2C(C)C)nn1Cc1ccc(-c2ccccc2-c2nnn[nH]2)nc1 [Compound 263] | 0.057 |
| CCCCc1cn(C2C3CC4CC(C3)C2C4)c(=O)n1Cc1ccc(-c2ccccc2-c2nnn[nH]2)nc1 (stereo not shown) [Compound 213] | 0.051 |
| CCCCc1cn(CCCC)c(=O)n1Cc1ccc(-c2cccnc2-c2nnn[nH]2)cc1 [Compound 227] | 0.089 |
| CCCCc1nc(-c2ccccc2OC)nn1Cc1ccc(-c2ccccc2-c2nnn[nH]2)nc1 [Compound 265] | 0.11 |
| CCCCc1cn(C2CCCC2)c(=O)n1Cc1ccc(-c2ccccc2-c2nnn[nH]2)nc1 [Compound 207] | 0.099 |
| CCCCc1cn(CCC)c(=O)n1Cc1ccc(-c2ccccc2-c2nnn[nH]2)nc1 [Compound 196] | 0.031 |
| CCCCc1nn(C(Cc2ccccc2)C(=O)c2ccccc2)c(=O)n1Cc1ccc(-c2ccccc2-c2nn[nH]n2)cc1 (stereo not shown) [Compound 94] | 5.8 |
| CCCCc1nn(CCCCC(=O)OC)c(=O)n1Cc1ccc(-c2ccccc2-c2nn[nH]n2)cc1 [Compound 100] | 0.0044 |

| Compound | IC50 [µM] |
| --- | --- |
| CCCCc1nc(-c2c(F)cccc2F)nn1Cc1ccc(-c2ccccc2-c2nnn[nH]2)nc1 [Compound 269] | 0.0097 |
| CCCCc1cn(C2CCCCC2(C)C)c(=O)n1Cc1ccc(-c2ccccc2-c2nnn[nH]2)nc1 (stereo not shown) [Compound 237] | 0.0036 |
| CCCCc1nc(CC(CC)CC)nn1Cc1ccc(-c2ccccc2-c2nnn[nH]2)nc1 [Compound 251] | 0.025 |
| CCCCc1nc(C23CC4CC(CC(C4)C2)C3)n(Cc2ccc(-c3ccccc3-c3nnn[nH]3)cc2)n1 [Compound 55] | 0.08 |
| CCCCc1nc(C2CCCCC2)nn1Cc1ccc(-c2ccccc2-c2nnn[nH]2)cc1 [Compound 66] | 0.012 |
| CCCCn1nc(C(F)CCC)nc1Cc1ccc(-c2ccccc2-c2nnn[nH]2)nc1 (stereo not shown) [Compound 161] | 0.028 |
| CCCCc1cn(CC)c(=O)n1Cc1ccc(-c2ccccc2-c2nnn[nH]2)nc1 [Compound 195] | 0.034 |
| CCCCc1nn(C/C=C/c2ccccc2)c(=O)n1Cc1ccc(-c2ccccc2-c2nn[nH]n2)cc1 [Compound 105] | 0.29 |
| CCCCc1cn(-c2ccccc2C(C)C)c(=O)n1Cc1ccc(-c2ccccc2-c2nnn[nH]2)nc1 [Compound 219] | 0.014 |
| CCCCc1cn(-c2ccccc2)c(=O)n1Cc1ccc(-c2ccccc2-c2nnn[nH]2)nc1 [Compound 215] | 0.045 |
| CCCCc1nc(CCCC)n(Cc2ccc(-c3ncccc3-c3nnn[nH]3)cc2)n1 [Compound 245] | 0.098 |
| CCCCc1nc(CC(CC)CC)n(Cc2ccc(-c3ccccc3-c3nnn[nH]3)nc2)n1 [Compound 252] | 0.013 |
| CCCCn1nc(C(OCCC)OCCC)nc1Cc1ccc(-c2ccccc2-c2nnn[nH]2)nc1 [Compound 177] | 0.026 |
| CCCCc1nc(-c2ccccc2OC)n(Cc2ccc(-c3ccccc3-c3nnn[nH]3)nc2)n1 [Compound 266] | 0.29 |
| CCCCc1nc(-c2ccccc2C)nn1Cc1ccc(-c2ccccc2-c2nnn[nH]2)nc1 [Compound 261] | 0.018 |
| CCCCc1nc(CCCC)n(Cc2ccc(-c3ccncc3-c3nnn[nH]3)cc2)n1 [Compound 243] | 0.25 |
| CCCCc1cn(-c2ccccc2OC)c(=O)n1Cc1ccc(-c2ccccc2-c2nnn[nH]2)nc1 [Compound 218] | 0.009 |
| CCCCc1cn(CC(C)C)c(=O)n1Cc1ccc(-c2ccccc2-c2nnn[nH]2)nc1 [Compound 197] | 0.014 |
| CCCCc1nc(CC23CC4CC(CC(C4)C2)C3)n(Cc2ccc(-c3ccccc3-c3nnn[nH]3)cc2)n1 [Compound 61] | 0.11 |
| CCCCc1nc(CCCC)n(Cc2ccc(-c3ccccc3C(=O)O)nc2)n1 [Compound 240] | 0.12 |
| CCCCn1cc(CCC(C)C)n(Cc2ccc(-c3ccccc3-c3nnn[nH]3)nc2)c1=O [Compound 189] | 0.029 |
| CCCCc1nc(CC)nn1Cc1ccc(-c2ccccc2C(=O)O)cc1 [Compound 75] | 0.57 |
| CCCCc1cn(-c2c(C(C)C)cccc2C(C)C)c(=O)n1Cc1ccc(-c2ccccc2-c2nnn[nH]2)nc1 [Compound 235] | 0.034 |
| CCCCc1cn(C23CC4CC(CC(C4)C2)C3)c(=O)n1Cc1ccc(-c2ccccc2-c2nnn[nH]2)nc1 [Compound 214] | 0.065 |

The next lines start with the values.

| IC50 [µM] | Compound |
| --- | --- |
| 0.016 | CCCCc1nc(C)nn1Cc1ccc(-c2ccccc2-c2nnn[nH]2)cc1 [Compound 32] |
| 0.011 | CCCCc1nc(-c2ccccc2C(C)C)n(Cc2ccc(-c3ccccc3-c3nnn[nH]3)nc2)n1 [Compound 264] |
| 0.64 | CCCCc1nc(CNC(=O)OC(C)(C)C)n(Cc2ccc(-c3ccccc3-c3nnn[nH]3)cc2)n1 [Compound 34] |
| 0.0026 | CCCCc1nc(CCc2ccccc2)nn1Cc1ccc(-c2ccccc2-c2nnn[nH]2)nc1 [Compound 253] |
| 2.2 | CCCCc1nc(CF)n(Cc2ccc(-c3ccccc3-c3nnn[nH]3)cc2)n1 [Compound 60] |
| 0.57 | CCCCCCCCc1nc(CCCC)nn1Cc1ccc(-c2ccccc2-c2nnn[nH]2)cc1 [Compound 28] |
| 0.083 | CCCCc1nc(CC)n(Cc2ccc(-c3ccccc3-c3nnn[nH]3)cc2)n1 [Compound 40] |
| 0.014 | CCCCc1nc(C(=O)CCC)nn1Cc1ccc(-c2ccccc2-c2nnn[nH]2)cc1 [Compound 31] |
| 0.01 | CCCCc1nc(CC(OCC)OCC)nn1Cc1ccc(-c2ccccc2-c2nnn[nH]2)cc1 [Compound 38] |
| 0.68 | CCCCc1nc(C(F)F)n(Cc2ccc(-c3ccccc3-c3nnn[nH]3)cc2)n1 [Compound 48] |
| 0.086 | CCCCCn1nc(CCCC)nc1Cc1ccc(-c2ccccc2-c2nnn[nH]2)nc1 [Compound 155] |
| 0.054 | CCCCc1nc(-c2ccccc2)nn1Cc1ccc(-c2ccccc2-c2nnn[nH]2)nc1 [Compound 259] |
| 0.63 | CCCCc1nc(C)n(Cc2ccc(-c3ccccc3-c3nnn[nH]3)cc2)n1 [Compound 33] |
| 0.18 | CCCCc1nc(CN)nn1Cc1ccc(-c2ccccc2-c2nnn[nH]2)cc1 [Compound 27] |
| 0.22 | CCCCc1nc(-c2ccccc2)n(Cc2ccc(-c3ccccc3-c3nnn[nH]3)nc2)n1 [Compound 260] |
| 0.078 | CCCCCc1nc(Cc2ccc(-c3ccccc3-c3nnn[nH]3)nc2)n(CCCC)n1 [Compound 156] |
| 0.12 | CCCCc1nc(CF)nn1Cc1ccc(-c2ccccc2-c2nnn[nH]2)cc1 [Compound 59] |
| 0.019 | CCCCc1nc(CCC2CCCCC2)nn1Cc1ccc(-c2ccccc2-c2nnn[nH]2)cc1 [Compound 43] |
| 0.072 | CCCCc1nc(CCc2ccccc2)n(Cc2ccc(-c3ccccc3-c3nnn[nH]3)nc2)n1 [Compound 254] |
| 0.43 | CCCCc1nc(C(OC)OC)n(Cc2ccc(-c3ccccc3-c3nnn[nH]3)cc2)n1 [Compound 23] |
| 0.087 | CCCCc1nc(-c2ccccc2)nn1Cc1ccc(-c2ccccc2-c2nnn[nH]2)cc1 [Compound 21] |
| 0.016 | CCCCc1nc(Cc2ccccc2)nn1Cc1ccc(-c2ccccc2-c2nnn[nH]2)cc1 [Compound 44] |
| 0.0086 | CCCCc1nc(CCCNC(=O)OC(C)(C)C)nn1Cc1ccc(-c2ccccc2-c2nnn[nH]2)cc1 [Compound 68] |
| 0.0095 | CCCCn1nc(CCc2ccccc2)nc1Cc1ccc(-c2ccccc2-c2nnn[nH]2)cc1 [Compound 131] |

Reference: patent US6653306B1, “Epoxy-steroidal aldosterone antagonist and angiotensin II antagonist combination therapy” (G.D. Searle & Co., priority 1995, dated 2003)
